The assay deals with LRRK2 (Homo sapiens, UniProt Q5S007). Kind of assay: LRRK2 affinity (Ki). The class given is binding. To be noted: LRRK2 affinity (micromolar), Table 1.

pKi: −log10 of the molar value.

One may read the pKi as −log10 of the Ki, conventionally taken in molar units. Lower therefore signals a large Ki.

Sequence of LRRK2 (Q5S007 whole entry): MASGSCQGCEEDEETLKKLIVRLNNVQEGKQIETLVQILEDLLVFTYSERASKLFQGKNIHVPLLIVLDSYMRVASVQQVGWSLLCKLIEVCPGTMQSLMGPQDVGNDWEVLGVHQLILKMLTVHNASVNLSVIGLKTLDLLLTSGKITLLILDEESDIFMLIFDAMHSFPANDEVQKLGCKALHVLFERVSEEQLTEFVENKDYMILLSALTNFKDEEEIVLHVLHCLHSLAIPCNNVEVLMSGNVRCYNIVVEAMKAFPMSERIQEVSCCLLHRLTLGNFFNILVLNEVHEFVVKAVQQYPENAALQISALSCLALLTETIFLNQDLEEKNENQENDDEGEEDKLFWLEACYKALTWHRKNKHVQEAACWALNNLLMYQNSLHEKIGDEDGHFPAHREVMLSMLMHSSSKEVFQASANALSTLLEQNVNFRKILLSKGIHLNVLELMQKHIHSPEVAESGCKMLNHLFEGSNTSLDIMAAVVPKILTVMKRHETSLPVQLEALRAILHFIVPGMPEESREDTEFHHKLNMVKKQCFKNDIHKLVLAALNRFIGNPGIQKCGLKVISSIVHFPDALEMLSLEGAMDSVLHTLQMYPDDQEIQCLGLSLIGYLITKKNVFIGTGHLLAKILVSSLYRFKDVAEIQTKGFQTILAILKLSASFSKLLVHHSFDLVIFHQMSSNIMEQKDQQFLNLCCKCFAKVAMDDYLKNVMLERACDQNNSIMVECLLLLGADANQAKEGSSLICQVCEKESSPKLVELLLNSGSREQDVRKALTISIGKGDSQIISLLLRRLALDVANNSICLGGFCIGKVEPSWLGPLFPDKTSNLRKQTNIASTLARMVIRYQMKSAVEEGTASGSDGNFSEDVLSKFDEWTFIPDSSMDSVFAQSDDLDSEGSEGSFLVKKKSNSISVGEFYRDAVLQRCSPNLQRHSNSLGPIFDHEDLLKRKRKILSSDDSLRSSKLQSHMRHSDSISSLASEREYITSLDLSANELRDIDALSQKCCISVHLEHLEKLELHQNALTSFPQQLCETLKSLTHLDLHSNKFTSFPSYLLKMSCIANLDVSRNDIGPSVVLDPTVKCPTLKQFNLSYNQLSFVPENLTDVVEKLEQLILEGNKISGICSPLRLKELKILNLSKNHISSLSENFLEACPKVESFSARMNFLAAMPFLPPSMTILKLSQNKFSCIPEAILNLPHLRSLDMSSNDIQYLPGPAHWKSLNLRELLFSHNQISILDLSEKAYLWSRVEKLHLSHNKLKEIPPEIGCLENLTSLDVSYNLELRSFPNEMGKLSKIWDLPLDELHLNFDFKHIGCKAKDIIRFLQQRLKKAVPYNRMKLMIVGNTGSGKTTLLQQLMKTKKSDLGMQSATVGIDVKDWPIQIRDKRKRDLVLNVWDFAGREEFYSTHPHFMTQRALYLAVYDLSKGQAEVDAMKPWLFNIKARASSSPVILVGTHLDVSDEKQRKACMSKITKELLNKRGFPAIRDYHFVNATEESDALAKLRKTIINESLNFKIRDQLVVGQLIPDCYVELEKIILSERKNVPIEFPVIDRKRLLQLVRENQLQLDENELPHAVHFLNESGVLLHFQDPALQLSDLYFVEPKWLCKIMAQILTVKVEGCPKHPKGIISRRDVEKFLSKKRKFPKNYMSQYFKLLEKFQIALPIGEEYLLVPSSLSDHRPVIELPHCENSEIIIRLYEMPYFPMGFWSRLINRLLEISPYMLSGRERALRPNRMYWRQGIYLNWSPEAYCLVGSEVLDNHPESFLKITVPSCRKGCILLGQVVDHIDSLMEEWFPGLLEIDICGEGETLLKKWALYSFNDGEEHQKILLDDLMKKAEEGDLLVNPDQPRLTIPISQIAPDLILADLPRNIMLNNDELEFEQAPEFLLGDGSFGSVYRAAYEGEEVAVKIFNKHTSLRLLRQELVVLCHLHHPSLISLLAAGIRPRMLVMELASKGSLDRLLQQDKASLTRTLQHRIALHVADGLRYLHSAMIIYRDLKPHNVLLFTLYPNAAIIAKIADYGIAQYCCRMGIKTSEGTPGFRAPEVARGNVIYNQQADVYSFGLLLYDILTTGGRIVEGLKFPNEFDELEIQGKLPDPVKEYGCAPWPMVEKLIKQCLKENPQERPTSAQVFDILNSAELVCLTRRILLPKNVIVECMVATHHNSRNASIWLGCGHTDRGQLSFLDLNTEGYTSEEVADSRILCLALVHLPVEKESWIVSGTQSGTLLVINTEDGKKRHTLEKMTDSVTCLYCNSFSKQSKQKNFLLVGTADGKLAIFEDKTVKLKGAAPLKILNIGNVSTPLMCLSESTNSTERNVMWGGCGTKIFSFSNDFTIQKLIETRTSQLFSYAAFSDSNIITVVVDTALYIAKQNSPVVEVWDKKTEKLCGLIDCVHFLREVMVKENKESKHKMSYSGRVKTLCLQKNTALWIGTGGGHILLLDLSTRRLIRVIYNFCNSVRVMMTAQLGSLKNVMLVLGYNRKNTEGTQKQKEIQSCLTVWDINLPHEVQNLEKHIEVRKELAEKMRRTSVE

`[2H]C([2H])(F)C([2H])([2H])n1ncc(Nc2ncc(C(F)(F)F)c(NC)n2)c1C` [Compound 48, N2-(1-(2-fluoro-1,1,2,2-tetradeutero-ethyl)-5-methyl-1H-pyrazol-4-yl)-N4-methyl-5-(trifluoromethyl)pyrimidine-2,4-diamine] showed a pKi of 8.70.

The record behind these values is patent publication US9139566B2, “Fluorine-18 and carbon-11 labeled radioligands for positron emission tomography (PET) imaging for LRRK2” (Genentech, Inc., priority 2011, dated 2015).
